Patent US9745297B2, “Compounds as modulators of RORC” (Boehringer Ingelheim International GmbH, priority 2013, dated 2017)

Target: T1, RORγt (Homo sapiens, UniProt P51449)
T1 construct: expressed in transfected cells
T1 sequence (P51449 269-508 limits assumed): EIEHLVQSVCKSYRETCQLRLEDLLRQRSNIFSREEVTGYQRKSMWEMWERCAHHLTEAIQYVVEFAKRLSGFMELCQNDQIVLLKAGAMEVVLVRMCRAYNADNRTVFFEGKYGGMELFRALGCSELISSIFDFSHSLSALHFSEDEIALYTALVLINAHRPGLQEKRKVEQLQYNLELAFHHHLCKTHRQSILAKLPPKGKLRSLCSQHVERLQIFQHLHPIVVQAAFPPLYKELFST
Experiment: RGA Assay: nuclear receptor transactivation assay, RORγt transactivation of a luciferase reporter
Assay type: cell-based
Settings: transiently transfected HEK 293 cells (pGL4.3 luc2P/GAL4UAS, pBIND Gal4DBD hRORC LBD), 20-24 hours incubation, luciferase readout
Protocol: A nuclear receptor transactivation assay was performed to quantitate the ability of test compounds to inhibit RORγt transactivation of a luciferase reporter. A similar assay is described in: Khan et al., Bioorganic & Medicinal Chemistry Letters 23 (2013), 532-536. The system uses transiently transfected HEK 293 cells cotransfected with two plasmids (pGL4.3, luc2P/GAL4UAS/Hygro, and pBIND, Ga14DBD hRORC LBD1-3). The positive control is co-transiently transfected with both plasmids, and the negative control contains the pGL4.3 promoter sequence. Assays were assembled in 384 well plates where transiently transfected cells and test compound at varying concentrations were incubated for 20-24 hours. The next day, assays plates are taken out and equillibrated at RT for 20-30 minutes. Bright-Glo™ Luciferase Assay System is used to detect Luciferase production. After addition of Bright GLO detection reagent, the plates were incubated at RT for 20 minutes. The plates were read on an Envision plate reader to measure luminescence signal. The RLU signal is converted to POC relative to control and blank wells.
Compound Dilution Buffer:
Bright Glo Luciferase Assay System: Promega #E2620
Thaw lysis buffer provided in kit, add 100 mL lysis buffer to substrate powder.

Structure (SMILES)	IC50
CNS(=O)(=O)c1ccc(CNC(=O)N2CC3(CCCC3)c3nc(-c4ccc(F)cc4C)ccc32)cc1 [Example 1]	1.6 µM
Cc1cc(O)ccc1-c1ccc2c(n1)C(C)(C)CN2C(=O)NCc1ccc(C#N)cc1 [Example 2]	> 30 µM
COc1cc(C)c(-c2ccc3c(n2)C(C)(C)CN3C(=O)NCc2ccc(C#N)cc2)cn1 [Example 3]	> 30 µM
COc1ccc(-c2ccc3c(n2)C(C)(C)CN3C(=O)NCc2ccc(C#N)cc2)c(C(F)(F)F)c1 [Example 4]	12 µM
Cc1nc(N2CCOCC2)ccc1-c1ccc2c(n1)C1(CCCC1)CN2C(=O)NCc1ccc(S(C)(=O)=O)cc1 [Example 5]	> 30 µM
COC1CCCN(c2ccc(-c3ccc4c(n3)C3(CCCC3)CN4C(=O)NCc3ccc(S(C)(=O)=O)cc3)c(C)n2)C1 (stereo not drawn) [Example 6]	24 µM
COC1CCN(c2ccc(-c3ccc4c(n3)C3(CCCC3)CN4C(=O)NCc3ccc(S(C)(=O)=O)cc3)c(C)n2)CC1 [Example 7]	> 30 µM
CNC(=O)c1ccc(-c2ccc3c(n2)C2(CCCC2)CN3C(=O)NCc2ccc(S(C)(=O)=O)cc2)c(C)c1 [Example 8]	> 30 µM
CCNC(=O)c1ccc(-c2ccc3c(n2)C2(CCCC2)CN3C(=O)NCc2ccc(S(C)(=O)=O)cc2)c(C)c1 [Example 9]	4.3 µM
CCS(=O)(=O)c1ccc(CNC(=O)N2CC3(CCCC3)c3nc(-c4ccc(C#N)cc4C)ccc32)cc1 [Example 10]	11 µM
CCS(=O)(=O)c1ccc(CNC(=O)N2CC3(CCCC3)c3nc(-c4ccc(O)cc4C(F)(F)F)ccc32)cc1 [Example 11]	0.11 µM
CCS(=O)(=O)c1ccc(CNC(=O)N2CC3(CCCC3)c3nc(-c4ccc(OC)cc4C(F)(F)F)ccc32)cc1 [Example 12]	0.48 µM
CCS(=O)(=O)c1ccc(CNC(=O)N2CC3(CCCC3)c3nc(-c4cnc(OC)cc4C)ccc32)cc1 [Example 13]	5.2 µM
CCS(=O)(=O)c1ccc(CNC(=O)N2CC3(CCCC3)c3nc(-c4ccc(F)cc4C)ccc32)cc1 [Example 14]	3.4 µM
CCS(=O)(=O)c1ccc(CNC(=O)N2CC3(CCCC3)c3nc(-c4ccc(O)cc4C)ccc32)cc1 [Example 15]	0.48 µM
CC1(C)CN(C(=O)NCc2ccc(S(C)(=O)=O)cc2)c2ccc(Br)nc21 [Example 16]	> 30 µM
CNS(=O)(=O)c1ccc(CNC(=O)N2CC(C)(C)c3nc(Br)ccc32)cc1 [Example 17]	> 30 µM
COc1ccc(-c2ccc3c(n2)C(C)(C)CN3C(=O)NCc2ccc(S(C)(=O)=O)cc2)c(C(F)(F)F)c1 [Example 18]	3.4 µM
COc1cc(C)c(-c2ccc3c(n2)C(C)(C)CN3C(=O)NCc2ccc(S(C)(=O)=O)cc2)cn1 [Example 19]	10 µM
CC(C)c1ncncc1-c1ccc2c(n1)C(C)(C)CN2C(=O)NCc1ccc(S(C)(=O)=O)cc1 [Example 20]	19 µM
Cc1cc(O)ccc1-c1ccc2c(n1)C(C)(C)CN2C(=O)NCc1ccc(S(C)(=O)=O)cc1 [Example 21]	12 µM
Cc1cc(F)ccc1-c1ccc2c(n1)C(C)(C)CN2C(=O)NCc1ccc(S(C)(=O)=O)cc1 [Example 22]	> 30 µM
CNS(=O)(=O)c1ccc(CNC(=O)N2CC(C)(C)c3nc(-c4ccc(OC)cc4C(F)(F)F)ccc32)cc1 [Example 23]	1.8 µM
CCS(=O)(=O)c1ccc(CNC(=O)N2CC3(CCCC3)c3nc(-c4c(C)ncnc4C)ccc32)cc1 [Example 24]	5.9 µM
CCS(=O)(=O)c1ccc(CNC(=O)N2CC3(CCCC3)c3nc(-c4cncnc4C(C)C)ccc32)cc1 [Example 25]	1.2 µM
CCS(=O)(=O)c1ccc(CNC(=O)N2CC3(CCCC3)c3nc(-c4c(OC)ncnc4C4CC4)ccc32)cc1 [Example 26]	0.35 µM
CCS(=O)(=O)c1ccc(CNC(=O)N2CC3(CCCC3)c3nc(-c4sc(OC)nc4C)ccc32)cc1 [Example 27]	8 µM
CCS(=O)(=O)c1ccc(CNC(=O)N2CC3(CCCC3)c3nc(-c4c(C)nn(CCN(C)C)c4C)ccc32)cc1 [Example 28]	> 30 µM
CCS(=O)(=O)c1ccc(CNC(=O)N2CC3(CCCC3)c3nc(-c4c(C(C)C)n[nH]c4C)ccc32)cc1 [Example 29]	1.7 µM

Further lines, results first:

IC50	Structure (SMILES)
> 30 µM	CCS(=O)(=O)c1ccc(CNC(=O)N2CC3(CCCC3)c3nc(-c4c(C)n[nH]c4C)ccc32)cc1 [Example 31]
17 µM	CCS(=O)(=O)c1ccc(CNC(=O)N2CC3(CCCC3)c3nc(-c4sc(N)nc4C(F)(F)F)ccc32)cc1 [Example 32]
1.2 µM	CCS(=O)(=O)c1ccc(CNC(=O)N2CC3(CCCC3)c3nc(-c4cnc(N(C)C)nc4C(F)(F)F)ccc32)cc1 [Example 33]
11 µM	COCCOc1cc(C#N)ccc1CNC(=O)N1CC2(CCCC2)c2nc(-c3cncnc3C(C)C)ccc21 [Example 34]
2.1 µM	CCS(=O)(=O)c1ccc(CNC(=O)N2CC3(CCCC3)c3nc(-c4cncnc4C(F)(F)F)ccc32)cc1 [Example 35]
16 µM	CCS(=O)(=O)c1ccc(CNC(=O)N2CC3(CCCC3)c3nc(-c4c(C)nn(C)c4C)ccc32)cc1 [Example 36]
> 30 µM	CCS(=O)(=O)c1ccc(CNC(=O)N2CC3(CCCC3)c3nc(-c4ncc(C)nc4C)ccc32)cc1 [Example 37]
> 30 µM	CCS(=O)(=O)c1ccc(CNC(=O)N2CC3(CCCC3)c3nc(-c4ncc(C(F)(F)F)cn4)ccc32)cc1 [Example 38]
> 30 µM	CCS(=O)(=O)c1ccc(CNC(=O)N2CC3(CCCC3)c3nc(-c4nnccc4C(F)(F)F)ccc32)cc1 [Example 39]
1.6 µM	CCS(=O)(=O)c1ccc(CNC(=O)N2CC3(CCCC3)c3nc(-c4ncc(N(C)C)nc4C4CC4)ccc32)cc1 [Example 40]
> 30 µM	CCS(=O)(=O)c1ccc(CNC(=O)N2CC3(CCCC3)c3nc(-c4nc(C)cnc4C)ccc32)cc1 [Example 41]
10 µM	CNS(=O)(=O)c1ccc(CNC(=O)N2CC(C)(C)c3nc(-c4ccc(F)cc4C)ccc32)cc1 [Example 42]
8.5 µM	CNS(=O)(=O)c1ccc(CNC(=O)N2CC(C)(C)c3nc(-c4ccc(O)cc4C)ccc32)cc1 [Example 43]
18 µM	CNS(=O)(=O)c1ccc(CNC(=O)N2CC(C)(C)c3nc(-c4cnc(OC)cc4C)ccc32)cc1 [Example 44]
9.1 µM	CNS(=O)(=O)c1ccc(CNC(=O)N2CC(C)(C)c3nc(-c4cncnc4C(C)C)ccc32)cc1 [Example 45]
4.1 µM	COc1ccc(-c2ccc3c(n2)C2(CCCC2)CN3C(=O)NCc2ccc(C#N)cc2)c(C(F)(F)F)c1 [Example 46]
15 µM	COc1cc(C)c(-c2ccc3c(n2)C2(CCCC2)CN3C(=O)NCc2ccc(C#N)cc2)cn1 [Example 47]

IC50	Structure (SMILES)
6.6 µM	CC1(C)CN(C(=O)NCc2ccc(S(C)(=O)=O)cc2)c2ccc(Oc3ccc(F)c(OC(F)(F)F)c3)nc21 [Example 48]
4.1 µM	CNS(=O)(=O)c1ccc(CNC(=O)N2CC(C)(C)c3nc(Oc4ccc(F)c(OC(F)(F)F)c4)ccc32)cc1 [Example 49]
8.6 µM	Cc1cc(F)ccc1-c1ccc2c(n1)C1(CCCC1)CN2C(=O)NCc1ccc(S(C)(=O)=O)cc1 [Example 50]
0.71 µM	CNS(=O)(=O)c1ccc(CNC(=O)N2CC3(CCCC3)c3nc(-c4ccc(OC)cc4C(F)(F)F)ccc32)cc1 [Example 51]
0.93 µM	COc1ccc(-c2ccc3c(n2)C2(CCCC2)CN3C(=O)NCc2ccc(S(C)(=O)=O)cc2)c(C(F)(F)F)c1 [Example 52]
1.4 µM	Cc1cc(O)ccc1-c1ccc2c(n1)C1(CCCC1)CN2C(=O)NCc1ccc(S(C)(=O)=O)cc1 [Example 54]
1.1 µM	CNS(=O)(=O)c1ccc(CNC(=O)N2CC3(CCCC3)c3nc(-c4cncnc4C(C)C)ccc32)cc1 [Example 55]
1.6 µM	CC(C)c1ncncc1-c1ccc2c(n1)C1(CCCC1)CN2C(=O)NCc1ccc(S(C)(=O)=O)cc1 [Example 56]
5.2 µM	CNS(=O)(=O)c1ccc(CNC(=O)N2CC3(CCCC3)c3nc(-c4cnc(OC)cc4C)ccc32)cc1 [Example 57]
8 µM	COc1cc(C)c(-c2ccc3c(n2)C2(CCCC2)CN3C(=O)NCc2ccc(S(C)(=O)=O)cc2)cn1 [Example 58]
> 30 µM	CS(=O)(=O)c1ccc(CNC(=O)N2CC3(CCCC3)c3nc(Oc4ccc(C(F)(F)F)nc4)ccc32)cc1 [Example 59]
8.5 µM	Cc1cc(C)c(Oc2ccc3c(n2)C2(CCCC2)CN3C(=O)NCc2ccc(S(C)(=O)=O)cc2)cn1 [Example 60]
7.6 µM	CNS(=O)(=O)c1ccc(CNC(=O)N2CC3(CCCC3)c3nc(Oc4cnc(C)cc4C)ccc32)cc1 [Example 61]
> 30 µM	CS(=O)(=O)c1ccc(CNC(=O)N2CC3(CCCC3)c3nc(Cl)ccc32)cc1 [Example 62]
> 30 µM	CCS(=O)(=O)c1ccc(CNC(=O)N2CC3(CCCC3)c3nc(-c4cn5ccnc5cc4C)ccc32)cc1 [Example 63]
16 µM	CCS(=O)(=O)c1ccc(CNC(=O)N2CC3(CCCC3)c3nc(-c4cnc(C#N)nc4C4CC4)ccc32)cc1 [Example 64]
18 µM	CS(=O)(=O)c1ccc(CNC(=O)N2CC3(CCCC3)c3nc(-c4cnc(C#N)nc4C4CC4)ccc32)cc1 [Example 65]
